19 compounds from US4073935A, “Substituted propanol-(2)-derivatives and their nicotinic acid esters, and process for their preparation, and the use thereof as hypolipemic drugs” (Klinge Pharma GmbH & Co., priority 1974, dated 1978) can be followed below.

The test system of this assay is serum lipids. In words: Lipid-lowering action in normolipemic rats. Conditions: Rattus norvegicus, 72 h, 4 × 100 mg/kg oral over 3 days, male Wistar rats, vs controls, X ± Sx. Format: in vivo. As for the experimental part:
Lipid-lowering action was tested on groups of 10 male Wistar rats (Ivanovas-Kisslegg), weight 200-220 g, normolipemic, or ordinary ration ("ssniff" complete feed).
The test compounds were taken up in an aqueous solution of 0.25% agar and 0.85% NaCl and administered orally. After administration of 4 × 100 mg/kg over a period of 3 days, the animals were bled by cardiac puncture after privation of […] for 4 hours.^1
^1 H. Enomoto and R. Zschocke, 3rd Int. Symp. Atheroscler, Berlin 1973, Abstr. 238.
Serum lipids were determined with a Technicon autoanalyzer. Total cholesterol (TC) was tested by the Liebermann-Burchard reaction. Quantitative analysis for triglycerides (TG) was performed by Eggstein and Kreutz's enzyme method (Klin. Wschr. 44, 262, 1966), modified for autoanalyzer.
Lipid lowering effect is expressed as percent lowering of total cholesterol and triglycerides compared to controls.

[1] abbreviates: read-out: % Lowering TC (total cholesterol).
Setting [2] is: read-out: % Lowering TG (triglycerides).

SMILES strings stand for the structures. Read-outs that look alike come from different tables or passages of the source.

Regarding `CC(C)(C)c1ccc(SCC(O)COc2ccc(C=CC(=O)O)cc2)cc1` (centres unmarked) [Compound 81, 3-4'-(2-Carboxyvinyl)-phenoxy!-1-(4'-t-butylphenylmercapto)-propanol-(2)], the inhibition in vivo at 100 mg/kg came to 27.5 ± 12.7% under setting [1] and 58.7 ± 14.8% under setting [2].
The matching figures for `CCCOC(=O)c1ccc(OCC(O)COc2ccc(C(C)(C)C)cc2)cc1` (centres unmarked) [Compound 18]: 34.4 ± 6.9% and 68.3 ± 23.1%.
The matching figures for `CC(C)OC(=O)c1ccc(OCC(O)COc2ccc(C(C)(C)C)cc2)cc1` (centres unmarked) [Compound 19]: 44.9 ± 8% and 72.9 ± 6.1%.
The like results for `O=C(O)c1ccc(OCC(O)CSc2ccc(Cl)cc2)cc1` (centres unmarked) [Compound 75, 3-(4'-Carboxyphenoxy)-1-(4'-chlorphenylmercapto)-propanol-(2)] were, in that order, 32.2 ± 8.7% and 55.8 ± 14.2%.
Regarding `CCCOC(=O)C=Cc1ccc(OCC(O)COc2ccc(C(C)(C)C)cc2)cc1` (centres unmarked) [Compound 23], the inhibition in vivo at 100 mg/kg runs as follows: under setting [1], 40.9 ± 9.3%; under setting [2], 77.9 ± 5.5%.
With `CCOC(=O)C=Cc1ccc(OCC(O)COc2ccc(Cl)cc2)cc1` (centres unmarked) [Compound 10], the inhibition in vivo at 100 mg/kg is, setting by setting: under setting [1], 38.4 ± 5.6%; under setting [2], 77.4 ± 8.5%.
The like results for `C=CCOC(=O)C=Cc1ccc(OCC(O)COc2ccc(Cl)cc2)cc1` (centres unmarked) [Compound 11] were, in that order, 76.1 ± 3.7% and 40.2 ± 10.3%.
With `COCCOC(=O)c1ccc(OCC(O)COc2ccc(C(C)(C)C)cc2)cc1` (centres unmarked) [Compound 49], the inhibition in vivo at 100 mg/kg came out at 33.1 ± 16.7% under setting [1] and 76.1 ± 14.6% under setting [2].
The like results for `CCOC(OCC)c1ccc(OCC(O)COc2ccc(Cl)cc2)cc1` (centres unmarked) [Compound 110] were, in that order, 32.1 ± 15.8% and 68 ± 6.5%.
Turning to `COC(=O)c1ccc(NCC(O)COc2ccc(Cl)cc2)cc1` (centres unmarked) [Compound 30], the inhibition in vivo at 100 mg/kg stood at 12.1 ± 8.6% under setting [1] and 69.3 ± 15.9% under setting [2].
Turning to `O=C(O)c1ccc(OCC(O)COc2ccc(Cl)cc2)cc1` (centres unmarked) [Compound 53, 3-(4'-Carboxyphenoxy)-1-(4'-chlorphenoxy)-propanol-(2)], the inhibition in vivo at 100 mg/kg came out at 40.5 ± 13.5% under setting [1] and 83.6 ± 15.5% under setting [2].
The like results for `O=C(OCc1cccnc1)c1ccc(OCC(O)COc2ccc(Cl)cc2)cc1` (centres unmarked) [Compound 85, 3-(4'-pyridyl-(3)-methoxycarbonylphenoxy)-1-(4'-chlorophenoxy)-propanol-(2)] were, in that order, 52 ± 8.6% and 81.4 ± 5.9%.
The matching figures for `COC(=O)C=Cc1ccc(OCC(O)CNc2ccc(C(C)(C)C)cc2)cc1` (centres unmarked) [Compound 37, 3-(4'-(2'-methoxycarbonylvinyl)-phenoxy)-1-(4'-t-butylphenylamino)-propanol-(2)]: 32.8 ± 13.7% and 71.9 ± 13.5%.
For the compound `CC(C)(C)c1ccc(OCC(O)COc2ccc(C(=O)NO)cc2)cc1` (centres unmarked) [Compound 108], the inhibition in vivo at 100 mg/kg under setting [1] was 51.1 ± 8.3% and the inhibition in vivo at 100 mg/kg under setting [2] amounted to 77.8 ± 3.3%.
The like results for `COCCOC(=O)c1ccc(OCC(O)COc2ccc(Cl)cc2)cc1` (centres unmarked) [Compound 45] were, in that order, 51.7 ± 12.2% and 75.8 ± 17.1%.
In the case of `CC(C)(C)c1ccc(OCC(O)COc2ccc(C=CC(=O)O)cc2)cc1` (centres unmarked) [Compound 61, 3-4'-(2-Carboxyvinyl)-phenoxy!-1-(4'-t-butylphenoxy)-propanol-(2)], the inhibition in vivo at 100 mg/kg is, setting by setting: under setting [1], 44.9 ± 13.8%; under setting [2], 81.2 ± 17.1%.
The matching figures for `CC(C)(C)c1ccc(OCC(O)COc2ccc(C(=O)OCCO)cc2)cc1` (centres unmarked) [Compound 48]: 60.4 ± 6.7% and 85.5 ± 15.6%.
The like results for `COC(=O)C=Cc1cccc(OCC(O)COc2ccc(Cl)cc2)c1` (centres unmarked) [Compound 14] were, in that order, 22.9 ± 5.2% and 64.8 ± 17.7%.
The like results for `COC(=O)c1ccc(OCC(O)CSc2ccc(Cl)cc2)cc1` (centres unmarked) [Compound 38] were, in that order, 12.3 ± 14.6% and 53 ± 17.6%.
